Experiment [1] concerns the target T1, BTK (Homo sapiens (Human), UniProt Q06187). The experiment in a line: BTK inhibition assay by Reaction Biology Corporation (33P-ATP, filter-binding). The experiment is classed as biochemical. To be noted: footnote a: from Reaction Biology Corporation. The procedure:
(§1) BTK inhibition Assay and selectivity Assay The assay was conducted either a by a third party (Reaction Biology Corporation, PA, USA) or in house.
a) Reagent and Procedure by Reaction Biology Corporation:
Base Reaction buffer; 20 mM Hepes (pH 7.5), 10 mM MgCl2, 1 mM EGTA, 0.02%. Brij35, 0.02 mg/ml BSA, 0.1 mM Na3VO4, 2 mM DTT, 1% DMSO. Required cofactors were added individually to each kinase reaction. Compound handling: testing compounds were dissolved in 100% DMSO to specific concentration. The serial dilution was conducted by Integra Viaflo Assist in DMSO.
The substrate was prepared in freshly prepared reaction buffer of above and required cofactors were added to the substrate solution. The kinase was delivered to the substrate solution and the mixture was gently mixed. Testing compounds in 100% DMSO was added to the kinase reaction mixture by Acoustic technology (Echo550; nanoliter range) and the new mixture was incubated for 20 min at room temperature. Then ^33P-ATP (Specific activity 10 μCi/μl) was added to the reaction mixture to initiate the reaction and the mixture was incubated for 2 hours at room temperature. The radioactivity was detected by filter-binding method and the kinase activity data was expressed as the percent of remaining kinase activity in test sample compared to vehicle (dimethyl sulfoxide) reaction. IC50 values and curve fits were obtained using Prism (GraphPad Software). The result is outlined in Table-I

Experiment [2] deals with T1, BTK. Kind of experiment: In house ELISA kinase inhibition assay, BTK. It is filed as biochemical. To be noted: footnote b: from in house procedure (ELISA). The procedure: as §1
b) In House Procedure for BTK, BMX, EGFR and ITK:
Kinase inhibitory activities of compounds were evaluated using the Enzyme-linked immunosorbent assay (ELISA). The kinase enzyme of BTK, BMX, EGFR and ITK were purchased from Carna Bioscience (Kobe, Japan). A total of 10 ng/mL antiphosphotyrosine (PY713) antibody (abcam, Cambridge Science Park, UK) was precoated in 96-well ELISA plates. The kinase enzymes in each reaction well were set to BTK (101.25 ng/mL), BMX (90 ng/mL), EGFR (90 ng/mL) or ITK (120 ng/mL) and incubated with indicated drugs in 1× reaction buffer (50 mmol/L HEPES pH 7.4, 20 mmol/L MgCl2, 0.1 mmol/L MnCl2, 1 mmol/L DTT) containing 20 μmol/L (the final concentration of substrate in ITK reaction was 30 μmol/L) substrate (NH2-[…]-biotin) at 25° C. for 1 h. Then, a total of 3 μmol/L ATP was added and the reaction was continued for 2 h. The products of reaction were transferred into 96-well ELISA plates containing antibody and incubated at 25° C. for 30 min. After incubation, the wells were washed with PBS and then incubated with horseradish peroxidase (HRP)-conjugated streptavidin. The wells were visualized using 3,3′,5,5′-tetramethylbenzidine (TMB), and chromogenic reaction was ended with 2 mol/L H2SO4, the absorbance was read with a multimode plate reader (PerkinElmer, USA) at 450 nm. IC50 values and curve fits were obtained using Prism (GraphPad Software). (Table I-IV)
(In general: ELISA stands for enzyme-linked immunosorbent assay.)

T1 sequence (Q06187 whole entry): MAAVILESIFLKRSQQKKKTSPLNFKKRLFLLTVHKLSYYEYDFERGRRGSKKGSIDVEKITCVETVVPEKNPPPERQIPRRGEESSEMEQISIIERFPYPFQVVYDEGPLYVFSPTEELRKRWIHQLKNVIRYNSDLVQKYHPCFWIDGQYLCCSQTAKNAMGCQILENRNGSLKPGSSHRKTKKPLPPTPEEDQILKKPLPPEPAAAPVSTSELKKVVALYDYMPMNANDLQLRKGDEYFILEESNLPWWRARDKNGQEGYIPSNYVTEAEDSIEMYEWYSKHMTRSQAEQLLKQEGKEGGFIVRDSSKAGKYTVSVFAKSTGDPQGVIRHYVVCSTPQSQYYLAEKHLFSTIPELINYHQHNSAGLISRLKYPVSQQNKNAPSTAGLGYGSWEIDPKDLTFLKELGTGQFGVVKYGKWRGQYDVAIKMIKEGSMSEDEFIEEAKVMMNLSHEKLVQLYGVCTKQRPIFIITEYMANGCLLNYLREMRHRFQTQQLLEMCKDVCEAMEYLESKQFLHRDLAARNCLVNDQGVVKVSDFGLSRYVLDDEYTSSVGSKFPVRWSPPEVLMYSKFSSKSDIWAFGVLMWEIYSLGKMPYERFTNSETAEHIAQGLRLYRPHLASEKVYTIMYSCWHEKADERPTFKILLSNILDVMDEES

Take `C=CC(=O)N1CCCC[C@H]1c1nc(-c2ccc(C(=O)Nc3cc(CC)ccn3)cc2)c(C(N)=O)n1NC` [Example 81, (S)-2-(1-acryloylpiperidin-2-yl)-4-(4-((4-ethylpyridin-2-yl)carbamoyl)phenyl)-1-(methylamino)-1H-imidazole-5-carboxamide]: the half-inhibitory concentration (IC50) (commonly the point on the concentration scale where inhibition reaches its midpoint) on BTK [1] was determined as 11 nM.

Turning to `N#CN1CCC[C@H]1c1nc(-c2ccc(C(=O)Nc3ccccn3)cc2)c(C(N)=O)n1N` [Example 9, (S)-1-amino-2-(1-cyanopyrrolidin-2-yl)-4-(4-(pyridin-2-ylcarbamoyl)phenyl)-1H-imidazole-5-carboxamide], the IC50 at BTK [1] came out at 5920 nM.

For `C=CC(=O)N1CCCC[C@H]1c1nc(-c2ccc(C(=O)Nc3cccnn3)cc2)c(C(N)=O)n1N` [Example 101, (S)-2-(1-acryloylpiperidin-2-yl)-1-amino-4-(4-(pyridazin-3-ylcarbamoyl)phenyl)-1H-imidazole-5-carboxamide], on BTK [2], the half-inhibitory concentration (IC50) worked out at 211 nM.

Compound `CCc1ccnc(NC(=O)c2ccc(-c3nc([C@@H]4CCCCN4C(=O)/C(C#N)=C/C(C)C)n(N)c3C(N)=O)cc2)c1` [Example 79, (S,E)-1-amino-2-(1-(2-cyano-4-methylpent-2-enoyl)piperidin-2-yl)-4-(4-((4-ethylpyridin-2-yl)carbamoyl)phenyl)-1H-imidazole-5-carboxamide] returned a concentration for half-maximal inhibition (IC50) against BTK [2] of 1720 nM.

On BTK [2], `C=CC(=O)N1CCCC[C@H]1c1nc(-c2ccc(C(=O)Nc3cc(-c4ccc(C#N)cc4)ccn3)cc2)c(C(N)=O)n1N` [Example 111, (S)-2-(1-acryloylpiperidin-2-yl)-1-amino-4-(4-((4-(4-cyanophenyl)pyridin-2-yl)carbamoyl)phenyl)-1H-imidazole-5-carboxamide] yielded a concentration for half-maximal inhibition (IC50) of 10.6 nM.

`C=CC(=O)N1CCC(Cc2nc(-c3ccc(C(=O)Nc4ccccn4)cc3)c(C(N)=O)n2N)CC1` [Example 103, 2-((1-acryloylpiperidin-4-yl)methyl)-1-amino-4-(4-(pyridin-2-ylcarbamoyl)phenyl)-1H-imidazole-5-carboxamide] showed an IC50 against BTK [2] of 176 nM.

With `CC#CC(=O)N1CCCC[C@H]1c1nc(-c2ccc(C(=O)Nc3cccnn3)cc2)c(C(N)=O)n1N` [Example 102, (S)-1-amino-2-(1-(but-2-ynoyl)piperidin-2-yl)-4-(4-(pyridazin-3-ylcarbamoyl)phenyl)-1H-imidazole-5-carboxamide], inhibition against BTK [2] was half-maximal at 2280 nM (IC50).

`CC#CC(=O)N1CCC(Cc2nc(-c3ccc(C(=O)Nc4ccccn4)cc3)c(C(N)=O)n2N)CC1` [Example 104, 1-amino-2-((1-(but-2-ynoyl)piperidin-4-yl)methyl)-4-(4-(pyridin-2-ylcarbamoyl)phenyl)-1H-imidazole-5-carboxamide] returned a half-maximal inhibitory concentration (IC50) against BTK [2] of 459 nM.

For the compound `C=CC(=O)N1CCCC[C@H]1c1nc(-c2ccc(C(=O)Nc3cc(C)c(F)cn3)cc2)c(C(N)=O)n1N` [Example 107, (S)-2-(1-acryloylpiperidin-2-yl)-1-amino-4-(4-((5-fluoro-4-methylpyridin-2-yl)carbamoyl)phenyl)-1H-imidazole-5-carboxamide], the IC50 at BTK [2] was found to be 44.5 nM.

Compound `C#CC(=O)N1CCCC[C@H]1c1nc(-c2ccc(C(=O)Nc3cc(C)ccn3)cc2)c(C(N)=O)n1N` [Example 96, (S)-1-amino-4-(4-((4-methylpyridin-2-yl)carbamoyl)phenyl)-2-(1-propioloylpiperidin-2-yl)-1H-imidazole-5-carboxamide] had an IC50 at BTK [2] of 19.2 nM.

As for `CC#CC(=O)N1CCCC[C@H]1c1nc(-c2ccc(C(=O)Nc3cc(-c4ccccc4)ccn3)cc2)c(C(N)=O)n1N` [Example 66, (S)-1-amino-2-(1-(but-2-ynoyl)piperidin-2-yl)-4-(4-((4-phenylpyridin-2-yl)carbamoyl)phenyl)-1H-imidazole-5-carboxamide], at BTK [2], it took 16.4 nM to reach half-maximal inhibition (IC50).

For the compound `CC#CC(=O)N1CCCC[C@H]1c1nc(-c2ccc(C(=O)Nc3cc(C)ccn3)cc2)c(C(N)=O)n1N` [Example 58, (S)-1-amino-2-(1-(but-2-ynoyl)piperidin-2-yl)-4-(4-((4-methylpyridin-2-yl)carbamoyl)phenyl)-1H-imidazole-5-carboxamide], the midpoint of inhibition on BTK [2], the IC50, lay at 58.1 nM.

`C=C(F)C(=O)N1CCCC[C@H]1c1nc(-c2ccc(C(=O)Nc3cc(C)ccn3)cc2)c(C(N)=O)n1N` [Example 59, (S)-1-amino-2-(1-(2-fluoroacryloyl)piperidin-2-yl)-4-(4-((4-methylpyridin-2-yl)carbamoyl)phenyl)-1H-imidazole-5-carboxamide] gave an IC50 on BTK [2] of 1270 nM.

Consider `CCc1ccnc(NC(=O)c2ccc(-c3nc([C@@H]4CCCN4C#N)n(N)c3C(N)=O)cc2)c1` [Example 39, (S)-1-amino-2-(1-cyanopyrrolidin-2-yl)-4-(4-((4-ethylpyridin-2-yl)carbamoyl)phenyl)-1H-imidazole-5-carboxamide], for which the midpoint of inhibition against BTK [2], the IC50, lay at 3850 nM.

As to `CC#CC(=O)N1CCC[C@H]1c1nc(-c2ccc(C(=O)Nc3cc(C(F)(F)F)ccn3)cc2)c(C(N)=O)n1N` [Example 43, (S)-1-amino-2-(1-(but-2-ynoyl)pyrrolidin-2-yl)-4-(4-((4-(trifluoro-methyl)pyridin-2-yl)carbamoyl)phenyl)-1H-imidazole-5-carboxamide], the IC50 at BTK [2] was found to be 577 nM.

As to `COc1ccnc(NC(=O)c2ccc(-c3nc([C@@H]4CCCCN4C(=O)/C=C/C(F)(F)F)n(N)c3C(N)=O)cc2)c1` [Example 69, (S,E)-1-amino-4-(4-((4-methoxypyridin-2-yl)carbamoyl)phenyl)-2-(1-(4,4,4-trifluorobut-2-enoyl)piperidin-2-yl)-1H-imidazole-5-carboxamide], on BTK [2], it took 70.7 nM to reach half-maximal inhibition (IC50).

For the compound `C=CC(=O)N1CCC[C@H]1c1nc(-c2ccc(C(=O)Nc3cc(OC)ccn3)cc2)c(C(N)=O)n1N` [Example 28, (S)-2-(1-acryloylpyrrolidin-2-yl)-1-amino-4-(4-((4-methoxypyridin-2-yl)carbamoyl)phenyl)-1H-imidazole-5-carboxamide], at BTK [2], the midpoint of inhibition, the IC50, lay at 72.9 nM.

The compound `C=CC(=O)N1CCC[C@H]1c1nc(-c2ccc(C(=O)Nc3cc(F)ccn3)cc2)c(C(N)=O)n1N` [Example 40, (S)-2-(1-acryloylpyrrolidin-2-yl)-1-amino-4-(4-((4-fluoropyridin-2-yl)carbamoyl)phenyl)-1H-imidazole-5-carboxamide] gave an IC50 at BTK [2] of 70.6 nM.

Compound `Cc1ccnc(NC(=O)c2ccc(-c3nc([C@@H]4CCCCN4C(=O)/C=C/C(F)(F)F)n(N)c3C(N)=O)cc2)c1` [Example 60, (S,E)-1-amino-4-(4-((4-methylpyridin-2-yl)carbamoyl)phenyl)-2-(1-(4,4,4-trifluorobut-2-enoyl)piperidin-2-yl)-1H-imidazole-5-carboxamide] had an IC50 against BTK [2] of 43.9 nM.

`C=CC(=O)N1CC2(CC(c3nc(-c4ccc(C(=O)Nc5cc(CC)ccn5)cc4)c(C(N)=O)n3N)C2)C1` [Example 95, 2-(2-acryloyl-2-azaspiro[3.3]heptan-6-yl)-1-amino-4-(4-((4-ethylpyridin-2-yl)carbamoyl)phenyl)-1H-imidazole-5-carboxamide]: on BTK [2], the midpoint of inhibition, the IC50, lay at 85.6 nM.

In turn, `CC#CC(=O)N1CCCC[C@H]1c1nc(-c2ccc(C(=O)Nc3ccccn3)cc2)c(C(N)=O)n1N` [Example 50, (S)-1-amino-2-(1-(but-2-ynoyl)piperidin-2-yl)-4-(4-(pyridin-2-ylcarbamoyl)phenyl)-1H-imidazole-5-carboxamide] displayed an IC50 at BTK [2] of 100 nM.

In the case of `C=C(F)C(=O)N1CCCC[C@H]1c1nc(-c2ccc(C(=O)Nc3cc(OC)ccn3)cc2)c(C(N)=O)n1N` [Example 70, (S)-1-amino-2-(1-(2-fluoroacryloyl)piperidin-2-yl)-4-(4-((4-methoxy-pyridin-2-yl)carbamoyl)phenyl)-1H-imidazole-5-carboxamide], at BTK [2], the concentration for half-maximal inhibition (IC50) was 2890 nM.

For the compound `CC#CC(=O)N1CCCC[C@H]1c1nc(-c2ccc(C(=O)Nc3cc(OC)ccn3)cc2)c(C(N)=O)n1N` [Example 68, (S)-1-amino-2-(1-(but-2-ynoyl)piperidin-2-yl)-4-(4-((4-methoxy-pyridin-2-yl)carbamoyl)phenyl)-1H-imidazole-5-carboxamide], the IC50 on BTK [2] was 79.6 nM.

Consider `C=CC(=O)N1CCC[C@H]1c1nc(-c2ccc(C(=O)Nc3ccc(C)cn3)cc2)c(C(N)=O)n1N` [Example 19, (S)-2-(1-acryloylpyrrolidin-2-yl)-1-amino-4-(4-((5-methylpyridin-2-yl)carbamoyl)phenyl)-1H-imidazole-5-carboxamide], for which, on BTK [2], the IC50 was 212 nM.
